This note sets out measurements from US20240317714A1, “3-[(1H-PYRAZOL-R-YL)OXY]PYRAZIN-2-AMINE COMPOUNDS AS HPK1 INHIBITOR AND USE THEREOF” (BeiGene, Ltd., priority 2020, published 2024).

pIC50: −log10 of the molar value.

The target of assay [1] is HPK1 kinase (aal-346. Life Technologies) (Homo sapiens (Human), UniProt Q92918). Nature of the assay: HPK Kinase Activity Assay at 1 mM ATP (TR-FRET). Type of assay: biochemical. The settings on record: HPK1 kinase 40 nM, 0.5 μM STK1 substrate, read-out: Enzymatic activity IC50. In general terms: TR-FRET usually uses a lanthanide donor and a delayed reading to cut background.
Sequence of HPK1 kinase (aal-346. Life Technologies) (Q92918 1-346): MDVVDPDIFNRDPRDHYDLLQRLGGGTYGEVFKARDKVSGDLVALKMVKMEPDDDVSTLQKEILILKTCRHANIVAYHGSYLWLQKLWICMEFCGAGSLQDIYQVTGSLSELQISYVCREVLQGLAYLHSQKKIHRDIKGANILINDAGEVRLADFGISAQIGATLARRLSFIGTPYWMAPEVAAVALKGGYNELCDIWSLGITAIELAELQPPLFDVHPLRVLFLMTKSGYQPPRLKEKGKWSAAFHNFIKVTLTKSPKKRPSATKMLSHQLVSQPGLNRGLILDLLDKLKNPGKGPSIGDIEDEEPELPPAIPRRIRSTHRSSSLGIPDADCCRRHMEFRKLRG

In assay [2] the test system is pSLP76(S376) level in Jurkat cell line. Kind of assay: Cellular pSLP76(S376) HTRF Assay. Type of assay: cell-based. The settings on record: Homo sapiens, Jurkat, Jurkat cells, 2 h compound treatment, stimulated with 0.05 μg/mL anti-human CD3 (OKT3) for 30 min.

The term pIC50 denotes −log10 of the IC50, conventionally taken in molar units. `C[C@@H]1COCCN1c1cc(-c2cnc(N)c(Oc3cnn(C4CCN(C)CC4)c3)n2)cc(C2(O)CCCOC2)c1` (stereo partly drawn) [Example A89, 3-(3-(5-amino-6-((1-(1-methylpiperidin-4-yl)-1H-pyrazol-4-yl)oxy)pyrazin-2-yl)-5-((R)-3-methylmorpholino)phenyl)tetrahydro-2H-pyran-3-ol]: the results for the pIC50 in assay [1] and in assay [2] were 7.96 and 7.19, respectively.
With `CN1CCC(n2cc(Oc3nc(-c4cc(N5CCCC5=O)cc(C5(O)COC5)c4)cnc3N)cn2)CC1` [Example A91, 1-(3-(5-amino-6-((1-(1-methylpiperidin-4-yl)-1H-pyrazol-4-yl)oxy)pyrazin-2-yl)-5-(3-hydroxyoxetan-3-yl)phenyl)pyrrolidin-2-one], the results for the pIC50 in assay [1] and in assay [2] were 7.96 and 6.70, respectively.
As for `Cc1cc(-c2cnc(N)c(Oc3cnn(C4CCN(C)CC4)c3)n2)cc(C2(O)CCOC2)c1N1CC2(CCOCC2)C1` (centres unmarked) [Example A92, 3-(5-(5-amino-6-((1-(1-methylpiperidin-4-yl)-1H-pyrazol-4-yl)oxy)pyrazin-2-yl)-3-methyl-2-(7-oxa-2-azaspiro[3.5]nonan-2-yl)phenyl)tetrahydrofuran-3-ol], the pIC50 in assay [1] is 8.15; in assay [2], 6.81.
Consider `Cc1cc(-c2cnc(N)c(Oc3cnn(C4CCN(C)CC4)c3)n2)cc(C2(O)CCOC2)c1F` (centres unmarked) [Example A93, 3-(5-(5-amino-6-((1-(1-methylpiperidin-4-yl)-1H-pyrazol-4-yl)oxy)pyrazin-2-yl)-2-fluoro-3-methylphenyl)tetrahydrofuran-3-ol], for which the figures for the pIC50 in assay [1] and in assay [2] were 7.43 and 6.79, respectively.
`CC1OCCC1(O)c1cc(-c2cnc(N)c(Oc3cnn(C4CCN(C)CC4)c3)n2)cc(N2CCOC[C@H]2C)c1` (stereo partly drawn) [Example A94, 3-(3-(5-amino-6-((1-(1-methylpiperidin-4-yl)-1H-pyrazol-4-yl)oxy)pyrazin-2-yl)-5-((R)-3-methylmorpholino)phenyl)-2-methyltetrahydrofuran-3-ol]: the figures for the pIC50 in assay [1] and in assay [2] were 7.82 and 6.92, respectively.
The matching figures for `Cc1cc(-c2cnc(N)c(Oc3cnn(C4CCN(C)CC4)c3)n2)cc(C2(O)CCOC2)c1N1CCOCC1` (centres unmarked) [Example A96, 3-(5-(5-amino-6-((1-(1-methylpiperidin-4-yl)-1H-pyrazol-4-yl)oxy)pyrazin-2-yl)-3-methyl-2-morpholinophenyl)tetrahydrofuran-3-ol]: 7.44 and 6.93.
For `Cc1cc(-c2cnc(N)c(Oc3cnn(C4CCN(C)CC4)c3)n2)cc([C@@]2(O)CCOC2)c1N1CCOCC1` [Example A97A, (S)-3-(5-(5-amino-6-((1-(1-methylpiperidin-4-yl)-1H-pyrazol-4-yl)oxy)pyrazin-2-yl)-3-methyl-2-morpholinophenyl)tetrahydrofuran-3-ol] the same measures were 7.74 and 7.11.
Turning to `Cc1cc(-c2cnc(N)c(Oc3cnn(C4CCN(C)CC4)c3)n2)cc([C@]2(O)CCOC2)c1N1CCOCC1` [Example A97B, (R)-3-(5-(5-amino-6-((1-(1-methylpiperidin-4-yl)-1H-pyrazol-4-yl)oxy)pyrazin-2-yl)-3-methyl-2-morpholinophenyl)tetrahydrofuran-3-ol], the pIC50 in assay [1] was 7.52; in assay [2], 6.81.
As to `CN1CCC(n2cc(Oc3nc(-c4cc(N5CCCOCC5)cc(C5(O)CCOC5)c4)cnc3N)cn2)CC1` (centres unmarked) [Example A98, 3-(3-(5-amino-6-((1-(1-methylpiperidin-4-yl)-1H-pyrazol-4-yl)oxy)pyrazin-2-yl)-5-(1,4-oxazepan-4-yl)phenyl)tetrahydrofuran-3-ol], the pIC50 in assay [1] was 8.04; in assay [2], 7.14.
Regarding `CCN(CC)c1cc(-c2cnc(N)c(Oc3cnn(C4CCN(C)CC4)c3)n2)cc(CNC)n1` [Example B1, 5-(2-(diethylamino)-6-((methylamino)methyl)pyridin-4-yl)-3-((1-(1-methylpiperidin-4-yl)-1H-pyrazol-4-yl)oxy)pyrazin-2-amine], the values for the pIC50 in assay [1] and in assay [2] were 7.59 and 6.74, respectively.
With `CNCc1cc(-c2cnc(N)c(Oc3cnn(C4CCN(C)CC4)c3)n2)cc(N2CCC[C@H]2C)n1` [Example B2, (R)-5-(2-((methylamino)methyl)-6-(2-methylpyrrolidin-1-yl)pyridin-4-yl)-3-((1-(1-methylpiperidin-4-yl)-1H-pyrazol-4-yl)oxy)pyrazin-2-amine], the pIC50 in assay [1] was 7.92; in assay [2] it was 6.92.
For `C[C@@H]1COCCN1c1cc(-c2cnc(N)c(Oc3cnn(C4CCN(C)CC4)c3)n2)cc(C(C)(C)O)n1` [Example B3, (R)-2-(4-(5-amino-6-((1-(1-methylpiperidin-4-yl)-1H-pyrazol-4-yl)oxy)pyrazin-2-yl)-6-(3-methylmorpholino)pyridin-2-yl)propan-2-ol], the pIC50 in assay [1] is 7.96; in assay [2] it was 6.64.
Consider `C[C@@H]1COCCN1c1cc(-c2cnc(N)c(Oc3cnn(C4CCN(C)CC4)c3)n2)cc(C2(O)COC2)n1` [Example B4, (R)-3-(4-(5-amino-6-(1-(1-methylpiperidin-4-yl)-1H-pyrazol-4-yloxy)pyrazin-2-yl)-6-(3-methylmorpholino)pyridin-2-yl)oxetan-3-ol], for which the pIC50 in assay [1] was 7.51; in assay [2], 6.99.
